Read-outs that look alike come from different tables or passages of the source. Values belong to the compound of their own block, whether it stands above or below them.
Key:
p53/MDM2 interaction = details: cited from earlier work
p53-MDM2 interaction = biological target: T1, p53-MDM2 interaction (Homo sapiens, UniProt Q00987); experiment: AlphaLISA inhibitor screening assay, p53-MDM2 (cellular extracts with p53-His and MDM2-GST); format: biochemical; details: 33.3 μg/well MDM2-GST extract, Fig. 4; for concentration above which the AlphaLISA signal reached a plateau: dose-response, 1:10 serial dilutions
T1 construct: made in house; host or cells: MDM2-GST: Escherichia coli BL21 (DE3), crude extract; p53-His: HEK293T cells transfected with pEnter-p53, crude lysate
T1 sequence (Q00987 whole entry): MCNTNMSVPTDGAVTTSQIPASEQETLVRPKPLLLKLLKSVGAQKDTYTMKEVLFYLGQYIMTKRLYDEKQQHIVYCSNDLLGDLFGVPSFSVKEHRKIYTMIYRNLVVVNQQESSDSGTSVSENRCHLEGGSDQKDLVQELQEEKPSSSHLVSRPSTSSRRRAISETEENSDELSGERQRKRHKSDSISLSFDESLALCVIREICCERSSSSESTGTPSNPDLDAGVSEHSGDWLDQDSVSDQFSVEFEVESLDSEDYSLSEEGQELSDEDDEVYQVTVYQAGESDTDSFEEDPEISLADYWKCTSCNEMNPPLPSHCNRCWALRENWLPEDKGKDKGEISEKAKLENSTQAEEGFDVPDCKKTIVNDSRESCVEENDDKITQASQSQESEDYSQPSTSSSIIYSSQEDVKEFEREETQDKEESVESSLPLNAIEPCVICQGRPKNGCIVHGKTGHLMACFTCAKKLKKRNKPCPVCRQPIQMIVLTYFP

MDM2 = biological target: MDM2; design: method as in PMID 27764791; details: read-out: Ki, MDM2 antagonist; cited from earlier work

course of AlphaLISA response signal with increasing inhibitor dose (p53-MDM2 interaction; serial dilutions starting with 20 μM): continued to rise rapidly
SMILES: COc1cc(C(=O)O)ccc1NC(=O)[C@@H]1N[C@@H](CC(C)(C)C)[C@](C#N)(c2ccc(Cl)cc2F)[C@H]1c1cccc(Cl)c1F [Idasanutlin]
IC50 (p53/MDM2 interaction; read-out: IC50, p53-MDM2 inhibitor): 6 nM

SMILES: CC(C)(C)C[C@@H]1N[C@@H](C(=O)N[C@H]2CC[C@H](O)CC2)[C@H](c2cccc(Cl)c2F)[C@]12C(=O)Nc1cc(Cl)ccc12 [MI-773]
Ki (MDM2): 0.88 nM | concentration above which the AlphaLISA signal reached a plateau (p53-MDM2 interaction): exceeded 1 μΜ

concentration above which the AlphaLISA signal reached a plateau (p53-MDM2 interaction): exceeded 1 μΜ
SMILES: CCOc1cc(C(C)(C)C)ccc1C1=N[C@@](C)(c2ccc(Cl)cc2)[C@@](C)(c2ccc(Cl)cc2)N1C(=O)N1CCN(CCCS(C)(=O)=O)CC1 [RG-7112]
